Columns and labels:
[1] = target: T1, Serine/threonine-protein kinase pim-1 (Homo sapiens, UniProt P11309); assay: Inhibition of PIM1 in human NCI-H1299 cells assessed as reduction in BAD phosphorylation at Ser-112 residue incubated for 4 hrs by ELISA; assay type: cell-based
[2] = target: Serine/threonine-protein kinase pim-3 (Homo sapiens, UniProt Q86V86); assay: Inhibition of N-terminal 6-His tagged human recombinant PIM3 using PIM tide (ARKRRRHPSGPPTA) as substrate incubated for 1 hr by fluorescence based assay
[3] = target: Serine/threonine-protein kinase pim-2 (Homo sapiens, UniProt Q9P1W9); assay: Inhibition of His tagged human recombinant PIM2 using PIM tide (ARKRRRHPSGPPTA) as substrate incubated for 1 hr by fluorescence based assay
[4] = target: T1, Serine/threonine-protein kinase pim-1; assay: Inhibition of His tagged human recombinant PIM1 using PIM tide (ARKRRRHPSGPPTA) as substrate incubated for 1 hr by fluorescence based assay
[5] = target: T2, Receptor-type tyrosine-protein kinase FLT3 (Homo sapiens, UniProt P36888); assay: Inhibition of human FLT3 using EAIYAAPFAKKK as substrate incubated for 60 mins by fluorescence based assay
T2 sequence (P36888 whole entry): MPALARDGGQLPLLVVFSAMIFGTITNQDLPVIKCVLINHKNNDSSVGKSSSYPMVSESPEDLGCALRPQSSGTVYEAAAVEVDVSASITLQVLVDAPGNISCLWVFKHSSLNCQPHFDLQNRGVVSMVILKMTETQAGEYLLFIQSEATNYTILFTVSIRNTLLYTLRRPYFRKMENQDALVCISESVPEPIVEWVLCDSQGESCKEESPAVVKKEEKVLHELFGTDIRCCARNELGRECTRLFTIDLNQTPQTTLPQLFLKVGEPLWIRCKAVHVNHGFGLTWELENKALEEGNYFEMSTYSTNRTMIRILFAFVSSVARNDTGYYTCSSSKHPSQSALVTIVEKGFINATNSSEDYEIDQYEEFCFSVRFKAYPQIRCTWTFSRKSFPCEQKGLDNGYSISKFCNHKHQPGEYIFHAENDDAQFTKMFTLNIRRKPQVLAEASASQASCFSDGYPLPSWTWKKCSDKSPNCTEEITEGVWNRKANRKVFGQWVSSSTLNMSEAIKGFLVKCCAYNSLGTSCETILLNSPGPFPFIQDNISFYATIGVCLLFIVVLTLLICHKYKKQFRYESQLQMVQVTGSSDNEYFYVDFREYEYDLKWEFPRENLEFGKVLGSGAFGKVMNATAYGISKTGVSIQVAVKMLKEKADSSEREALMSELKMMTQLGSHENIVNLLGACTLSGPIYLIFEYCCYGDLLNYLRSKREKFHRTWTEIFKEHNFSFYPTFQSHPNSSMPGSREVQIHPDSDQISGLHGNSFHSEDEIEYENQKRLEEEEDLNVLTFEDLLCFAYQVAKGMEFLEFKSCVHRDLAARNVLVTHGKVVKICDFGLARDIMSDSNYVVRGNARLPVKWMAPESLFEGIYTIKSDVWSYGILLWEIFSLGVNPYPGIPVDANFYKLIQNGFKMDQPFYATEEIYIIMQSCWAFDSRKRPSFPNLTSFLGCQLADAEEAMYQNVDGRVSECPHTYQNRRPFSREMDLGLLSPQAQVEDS

[6] = Clearance in iv dosed Balb/c mouse administered as single dose measured after 0.08 to 4 hrs by HPLC/MS analysis; assay type: ADME, organism-based; details: in vivo
[7] = Clearance in iv dosed Balb/c mouse administered as single dose measured after 0.08 to 4 hrs by HPLC/MS analysis relative to hepatic blood flow; assay type: ADME, organism-based; details: in vivo
[8] = target: Voltage-gated inwardly rectifying potassium channel KCNH2 (Homo sapiens, UniProt Q12809)
MDA-MB-231 = assay: Antiproliferative activity against human MDA-MB-231 cells incubated for 72 hrs by CellTiter-Glo luminescence assay; assay type: functional; details: MDA-MB-231, 72 h

| SMILES | EC50 ([1]; read-out: EC50) | IC50 [2] | IC50 [3] | IC50 [4] | other results |
| --- | --- | --- | --- | --- | --- |
| CC(C)N1CCOc2c1cnn1c(-c3ccc4cccc(NCC5CCNCC5)c4n3)nnc21 | 0.915 µM | 0.076 µM | 1.65 µM | 0.016 µM |  |
| CN1CCOc2c1cnn1c(-c3ccc4cccc(NC5CCNCC5)c4n3)nnc21 | 1.38 µM | 0.095 µM | 0.69 µM | 0.012 µM |  |
| CN1CCOc2c1cnn1c(-c3ccc4cccc(NC(=O)C5CCNCC5)c4n3)nnc21 | 0.33 µM | 0.131 µM | 3.74 µM | 0.036 µM |  |
| CN1CCOc2c1cnn1c(-c3cccc(-c4cccc(NCC5CCNCC5)c4)n3)nnc21 |  |  |  | 0.785 µM |  |
| CN1CCOc2c1cnn1c(-c3ccc4cc(Cl)cc(NCC5(F)CCNCC5)c4n3)nnc21 |  | 0.001 µM | 1.27 µM | 0.03 µM | EC50 ([1]; nci-h1299): Not Active |
| CN1CCOc2c1cnn1c(C(=O)Nc3ccccc3NC3CCNCC3)nnc21 |  |  |  | > 10 µM |  |
| Cc1cc(NCC2(F)CCNCC2)c2nc(-c3nnc4c5c(cnn34)N(C)CCO5)ccc2c1 | 5.96 µM |  | > 10 µM | 0.236 µM |  |
| CN1CCOc2c1cnn1c(-c3ccnc(NC4CCNCC4)c3)nnc21 |  |  |  | > 10 µM |  |
| CN1CCOc2c1cnn1c(-c3ccc4cccc(NCC5CCCCC5)c4n3)nnc21 |  | > 10 µM | > 1 µM | 0.42 µM |  |
| CN1CCOc2c1cnn1c(-c3ccc4c(F)ccc(NCC5(F)CCNCC5)c4n3)nnc21 | 0.283 µM | 0.014 µM | 3.01 µM | 0.03 µM | IC50 [5]: 3.97 µM; clearance [6]: 9.33 mL/min/kg; CLH [7]: < 30%; IC50 [8]: > 20 µM |
| CN1CCOc2c1cnn1c(C(=O)Nc3ccccc3NCC3CCNCC3)nnc21 |  |  |  | > 10 µM |  |
| O=C(NOC[C@H](O)CO)c1ccc(F)c(F)c1Nc1ccc(I)cc1F [MIRDAMETINIB] |  |  |  |  | GI50 (MDA-MB-231): 1 µM |
| c1ccc(OCCN2CCOc3c2cnn2c(-c4ccc5cccc(NCC6CCNCC6)c5n4)nnc32)cc1 | 2.02 µM | 0.14 µM | 4.69 µM | 0.017 µM |  |
| CN1CCOc2c1cnn1c(-c3ccc4ccnc(NCC5CCNCC5)c4c3)nnc21 | 2.51 µM | 0.006 µM | 0.027 µM | 0.004 µM |  |
| CN1CCOc2c1cnn1c(-c3ccc4ccc(Cl)c(NCC5(F)CCNCC5)c4n3)nnc21 | 0.071 µM | 0.006 µM | 0.696 µM | 0.012 µM | IC50 [5]: > 10 µM; IC50 [8]: 2.1 µM |
| CCCN1CCOc2c1cnn1c(-c3ccc4cccc(NCC5CCNCC5)c4n3)nnc21 | 0.8 µM | 0.06 µM | 4.01 µM | 0.012 µM |  |
| CN1CCOc2c1cnn1c(-c3ccc4cc(F)cc(NCC5(F)CCNCC5)c4n3)nnc21 | 0.465 µM | 0.007 µM | 0.858 µM | 0.01 µM |  |
| CN1CCOc2c1cnn1c(-c3ccc4cccc(NC5CCOCC5)c4n3)nnc21 | 0.322 µM | 0.358 µM | 2.47 µM | 0.025 µM |  |

| SMILES | EC50 ([1]; read-out: EC50) | IC50 [2] | IC50 [3] | IC50 [4] | other results |
| --- | --- | --- | --- | --- | --- |
| CN1CCOc2c1cnn1c(-c3ccc4cccc(NC5CCC(C)(C)CC5)c4n3)nnc21 |  | 4.08 µM | > 10 µM | 0.092 µM | EC50 ([1]; nci-h1299): Not Active |
| CN1CCOc2c1cnn1c(-c3ccc4cccc(NCC5CCOCC5)c4c3)nnc21 |  | 0.281 µM | 9.94 µM | 0.02 µM |  |
| CN1CCOc2c1cnn1c(-c3ccc4cccc(NC5CCCCC5)c4c3)nnc21 | 0.265 µM | 1.55 µM | 8.04 µM | 0.046 µM | IC50 [5]: > 10 µM; IC50 [8]: 6.06 µM |
| CN1CCOc2c1cnn1c(-c3cccc(C(=O)NCC4CCNCC4)c3)nnc21 |  |  |  | 0.87 µM |  |
| CN1CCOc2c1cnn1c(-c3cccc(-c4cccc(NC5CCNCC5)c4)n3)nnc21 |  |  |  | 0.425 µM |  |
| CN1CCOc2c1cnn1c(-c3ccc4cccc(N5CCNCC5)c4n3)nnc21 | 5.36 µM | 0.257 µM | > 10 µM | 0.2 µM |  |
| CCN1CCOc2c1cnn1c(-c3ccc4cccc(NCC5CCNCC5)c4n3)nnc21 | 0.78 µM | 0.058 µM | 1.93 µM | 0.013 µM |  |
| CN1CCC(CNc2cccc3ccc(-c4nnc5c6c(cnn45)N(C)CCO6)nc23)CC1 | 0.179 µM | 0.082 µM | 4.25 µM | 0.014 µM | IC50 [5]: > 10 µM; IC50 [8]: > 20 µM |
| CN1CCOc2c1cnn1c(-c3ccc4cccc(NCC5CCOCC5)c4n3)nnc21 | 0.325 µM | 0.402 µM | 6.21 µM | 0.03 µM |  |
| CN1CCOc2c1cnn1c(C(=O)Nc3ccccc3OCC3CCNCC3)nnc21 |  |  |  | 1.1 µM |  |
| CN1CCOc2c1cnn1c(-c3ccc4cccc(NCC5CCNCC5)c4n3)nnc21 | 0.7 µM | 0.017 µM | 4.26 µM | 0.014 µM |  |
| CN1CCOc2c1cnn1c(-c3cccc(C(=O)NCC4CCNCC4)n3)nnc21 |  |  |  | 7.1 µM |  |
| CN1CCOc2c1cnn1c(-c3ccc4cccc(N5CCC(N)CC5)c4n3)nnc21 | 5.31 µM | 0.08 µM | 2.14 µM | 0.038 µM |  |
| CN1CCOc2c1cnn1c(-c3ccc4ccnc(NC5CCCCC5)c4c3)nnc21 | 0.11 µM | 0.238 µM | 1.1 µM | 0.026 µM | IC50 [5]: > 10 µM |
| CN1CCOc2c1cnn1c(-c3ccc4cccc(NCC5(F)CCNCC5)c4n3)nnc21 | 0.215 µM | 0.055 µM | 5.53 µM | 0.021 µM | IC50 [5]: > 10 µM |
| CN1CCOc2c1cnn1c(-c3cccc(NCC4CCNCC4)c3)nnc21 |  |  |  | > 10 µM |  |
| CN1CCC(Nc2cccc3ccc(-c4nnc5c6c(cnn45)N(C)CCO6)nc23)CC1 | 0.212 µM | 0.04 µM | 2.87 µM | 0.007 µM | IC50 [5]: > 10 µM; IC50 [8]: > 20 µM |
| CN1CCOc2c1cnn1c(-c3ccc4cccc(NCC5CCNCC5)c4c3)nnc21 | 0.865 µM | 0.058 µM | 4.87 µM | 0.006 µM |  |

— ChEMBL document CHEMBL4340512, “Discovery of novel triazolo[4,3-b]pyridazin-3-yl-quinoline derivatives as PIM inhibitors” (Eur J Med Chem, 2019)
